Measurements as given in EP0136569A2, “Isoflavone derivatives, their production and use” (Takeda Chemical Industries, Ltd., priority 1983, dated 1985).

Tested on: young oophorectomized rats
Assay: Estrogenic activity (uterine wet weight) in young oophorectomized rats
Format: in vivo, Sprague-Dawley rats
Text: Test Example 1 Estrogenic activity of 7-isopropoxy-3-(4-hydroxyphenyl)-4H-1-benzopyran-4-one (hereinafter referred to as compound A) in young oophorectomized rats Sprague-Dawley rats, 33 days old and 11 days after oophorectomy for elimination of endogenous estrogenic activity, were used in groups of 6 to 7 animals. Compound A was suspended in a 1% aqueous solution of hydroxypropyl-cellulose and administered orally for 3 days, while as a representative example of the conventional estrogen drug, estrone was dissolved in sesame oil and administered subcutaneously for 3 days. On the fourth day, each animal was autopsied and its uterine wet weight was recorded.

Row | Structure (SMILES) | Uterine wet weight (mg ± S.D.) (daily dose 6.25 mg/kg, orally for 3 days, autopsy on fourth day, n=7) [mg] | Uterine wet weight (mg ± S.D.) (daily dose 25 mg/kg, orally for 3 days, autopsy on fourth day, n=7) [mg] | Uterine wet weight (mg ± S.D.) (daily dose 100 mg/kg, orally for 3 days, autopsy on fourth day, n=7, significant vs control (P<0.01)) [mg] | Uterine wet weight (mg ± S.D.) (daily dose 400 mg/kg, orally for 3 days, autopsy on fourth day, n=6, significant vs control (P<0.01)) [mg] | uterine weight increasing effect, dose-response curve (orally for 3 days, daily dose levels of 100 mg/kg and 400 mg/kg) | Uterine wet weight (mg ± S.D.) (daily dose 0.0025 mg/kg, subcutaneously for 3 days in sesame oil, n=7, significant vs control (P<0.01)) [mg] | Uterine wet weight (mg ± S.D.) (daily dose 0.005 mg/kg, subcutaneously for 3 days in sesame oil, n=7, significant vs control (P<0.01)) [mg] | Uterine wet weight (mg ± S.D.) (daily dose 0.01 mg/kg, subcutaneously for 3 days in sesame oil, n=7, significant vs control (P<0.01)) [mg]
1 | CC(C)Oc1ccc2c(=O)c(-c3ccc(O)cc3)coc2c1 [Compound A, 7-isopropoxy-3-(4-hydroxyphenyl)-4H-1-benzopyran-4-one] | 32.6 ± 1.2 | 39.2 ± 2.3 | 56.3 ± 3.7 | 83.0 ± 6.9 | uterine weight increasing effect with a dose-response curve of moderate gradient | – | – | –
2 | C[C@]12CC[C@@H]3c4ccc(O)cc4CC[C@H]3[C@@H]1CCC2=O [Estrone, estrone, reference compound] | – | – | – | – | – | 121.1 ± 7.0 | 200.5 ± 14.3 | 247.2 ± 14.6
